According to patent US7838542B2, “Bicyclic compositions and methods for modulating a kinase cascade” (Kinex Pharmaceuticals, LLC, priority 2006, dated 2010):
“Also recorded” adds a separate entry of the source. Blank lines part the entries; values can stand above or below the compound they belong to. Numbered stars: 1 amine (or outer) side, 2 acyl side, 3 side chain; on linkers, the order of the positions; unused ones are H or OH. Square brackets hold non-standard residues; d marks the D form. Peptide text beside a SMILES is read from it. X2 = O=C([C@H](CNS(=O)(=O)O)N[*:1])[*:2]; X3 = O=C([C@H](CB(O)O)N[*:1])[*:2]

How the values were obtained:
SCID mice = conditions: mouse, in vivo, ip
pp60^c-src = pp60^c-src (Homo sapiens, UniProt P12931); assay: Src inhibition (RR-SRC phosphorylation), Cellular Mimetic assay; conditions: for mode of inhibition with respect to ATP: IC50 or % inhibition monitored at ATP increased up to 1 mM; for % Inhibition of 2 mM RR-src at Inhibitor Concentration (1 mM): inhibitor 1 mM; for % Inhibition of 2 mM RR-src at Inhibitor Concentration (100 μM): inhibitor 100 μM
Sequence of pp60^c-src (P12931 whole entry): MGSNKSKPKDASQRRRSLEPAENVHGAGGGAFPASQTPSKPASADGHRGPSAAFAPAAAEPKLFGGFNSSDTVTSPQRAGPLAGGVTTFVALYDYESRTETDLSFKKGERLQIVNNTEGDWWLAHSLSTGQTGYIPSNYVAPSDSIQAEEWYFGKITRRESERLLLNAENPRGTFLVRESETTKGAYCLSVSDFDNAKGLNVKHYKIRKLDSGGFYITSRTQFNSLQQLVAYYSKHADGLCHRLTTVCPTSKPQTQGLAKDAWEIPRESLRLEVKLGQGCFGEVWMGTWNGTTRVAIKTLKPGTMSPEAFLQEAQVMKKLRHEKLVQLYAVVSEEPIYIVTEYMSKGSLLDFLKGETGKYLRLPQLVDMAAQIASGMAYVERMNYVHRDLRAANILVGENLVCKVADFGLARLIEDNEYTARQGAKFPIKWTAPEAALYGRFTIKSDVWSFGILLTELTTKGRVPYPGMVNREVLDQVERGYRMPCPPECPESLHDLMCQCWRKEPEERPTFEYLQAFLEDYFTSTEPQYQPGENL

PKA [1] = target: T1, PKA (Homo sapiens, UniProt P17612); assay: PKA inhibition, Cellular Mimetic assay; assay type: biochemical; conditions: Cellular Mimetic assay conditions
From the text: (§1) The boronic acid inhibitors 21-24 have two Arg's in their sequence also and therefore will bind to the phosphocellulose paper in addition to Kemptamide (although not as consistently or completely due to one less positive charge). Consequently, when analyzed as inhibitors, the amount of phosphorylated Kemptamide produced was not only counted, but also the amount of phosphorylated inhibitor simultaneously produced (e.g. see 26 below). The net result is that distorted IC50 curves are obtained which show net “stimulation” at higher inhibitor concentrations in some cases. […] The underlying substrate behavior of these “inhibitors” makes an accurate measurement of their inhibition potency impossible with the current assay. However, it does appear from the data that homologating the boronic acid functionality out with only CH2 groups (homologations with boronic acid non-peptide Src inhibitors may also be carried out) decreases the binding affinity and ability to function as a substrate.

PKA [2] = target: T1, PKA; assay: STAIRe method: form of the protein kinase the inhibitor binds best to; assay type: biochemical
From the text: This was a somewhat surprising result since these inhibitors are analogs of the “end product inhibitors” 1 and 12 which must bind simultaneously with MgADP just following phosphate transfer in the generally accepted reaction mechanism for protein kinases.

PKA [3] = target: T1, PKA; assay: PKA inhibition, Literature Mimetic assay; assay type: biochemical; conditions: Literature Mimetic assay conditions
From the text: as §1

[4] = tested on: LA25 cells (temperature-sensitive pp60^v-Src transformant of NRK); assay: LA25 cell growth at permissive and non-permissive temperature; assay type: cell-based, rat
Method: (§2) Active Src inhibitors can be studied in a set of side-by-side cell-based assays using normal rat kidney (NRK) cells and a temperature-sensitive pp60^v-Src transformant of this cell line (LA25). The LA25 transformant engages in anchorage- and serum-independent growth at the “permissive” temperature of 33° C. due to activation of pp60^v-src but not at the “non-permissive” temperature of 40° C. at which pp60^v-src is not activated (Li et al., 1996). The use of this pair of closely related cell lines for testing the Src inhibitors at both the permissive and non-permissive temperatures allows one to determine if a given Src inhibitor is blocking cell growth due to specific blockade of the Src signaling pathway, by a different mechanism or by a general cytotoxic effect.
(§3) As shown in this graph the growth of the LA25 cells at the permissive temperature of 33° C. is inhibited by ca. 50% at a 25 μM concentration of 43-meta relative to the LA25 cell growth at the non-permissive 40° C. as a control. […] Since the 43-meta solutions were prepared with a low concentration of DMSO for solubilization, a DMSO control was also run at the same concentration.

[5] = tested on: normal rat kidney (NRK) cells; assay: NRK non-transformed cell growth; assay type: cell-based
Method: as §2, §3

PC-3 = assay: NIH 60-tumor cell panel assay, PC-3; assay type: cell-based; conditions: read-out: growth inhibition IC50, PC-3
From the text: The initial non-peptide Src inhibitors have also shown very encouraging results in four different series of cell culture assays. 1) In the NIH 60-tumor cell panel assay, broad activity (as one would expect for a Src inhibitor) was seen against the tumor cell lines, including the prostate lines. […] 3) The Src inhibitors were compared to the cancer drugs etoposide, taxol, doxorubicin and cisplatin in ovarian tumors from three different patients and an abdominal carcinoma from another patient. […] 5) Two of the Src inhibitors were also tested for inhibition of ts v-Src stimulated LA25 cell growth. […] 6) Two of the Src inhibitors were also tested for inhibition of normal rat kidney cell growth.

DU-145 = assay: NIH 60-tumor cell panel assay, DU-145; assay type: cell-based; conditions: read-out: growth inhibition IC50, DU-145

Compound: O=C(NCc1cccc(O)c1)c1cc2cc(F)ccc2[nH]1 [Compound 1a]
toxicity in MTD study (weight loss) (SCID mice): less toxic in mice than compound 2k

Compound: O=C(NCc1cccc(F)c1)c1cc2cc(F)ccc2[nH]1 [Compound 1z]
melting point: 239 to 241 °C

Compound: O=C(Nc1cccc(O)c1)c1cc2ccc(O)cc2cc1O [Compound 3]
IC50 (pp60^c-src; Table X): 16 µM

Compound: CC[C@H](C)[C@H](NC(=O)[C@H](CNS(=O)(=O)O)NC(=O)CNC(=O)[C@H](CCCNC(=N)N)NC(=O)[C@H](CCCNC(=N)N)NC(C)=O)C(N)=O [Compound 8] (Ac-RRG[X2]I-NH2)
times tighter binding than end product phosphate inhibitor 1 (PKA [1]): 108 ×
nucleotide form of the kinase bound best (STAIRe) (PKA [2]): bind best when MgATP (not MgADP or no nucleotide) is also bound
times tighter binding than end product phosphate inhibitor 1 (PKA [3]): 31 ×

Compound: OB(O)c1ccc2ccccc2c1 [Compound 27, 2-naphthalene boronic acid]
mode of inhibition with respect to ATP (pp60^c-src): not ATP-competitive inhibitors; also recorded: NON-ATP COMPETITIVE

Compound: O=P(O)(O)c1cccc2ccccc12 [Compound 33]
% Inhibition of 2 mM RR-src at Inhibitor Concentration (1 mM) (pp60^c-src; Table IV): 1 (1 mM) %

Compound: O=C(Nc1cccc(O)c1)c1cc2ccc(O)cc2cc1O [Compound 43-meta]
v-Src induced (Src stimulated) LA25 cell growth [4]: specifically blocked the v-Src induced cell growth
inhibition at 25 µM ([4]; Rattus norvegicus, read-out: inhibition of growth of LA25 cells at the permissive temperature of 33° C., 25 μM, relative to LA25 growth at non-permissive 40° C.): ~50%
normal growth of the parent non-transformed cells [5]: without inhibiting the normal growth of the parent non-transformed cells
cell toxicity ([5]; up to 400 μM, NRK cells, LA25 cells at 40° C. and at 33° C.): lack of cell toxicity

Compound: O=C(Nc1cccc(O)c1)c1cc2cccc(O)c2cc1O [Compound 45]
v-Src induced (Src stimulated) LA25 cell growth [4]: specifically blocked the v-Src induced cell growth
normal growth of the parent non-transformed cells [5]: without inhibiting the normal growth of the parent non-transformed cells

Compound: O=C(NCc1cccc(O)c1)c1cc2cc(O)ccc2[nH]1 [Compound 49-meta]
IC50 (PC-3): 39 µM
IC50 (DU-145): > 100 µM

Continued, in another order:

inhibition at 100 µM (pp60^c-src; read-out: % Inhibition at 100 μM (std. dev.), inhibitor 100 μM, Table IX): 14%
Compound: CC[C@H](C)[C@H](NC(=O)[C@H](CB(O)O)NC(=O)CNC(=O)[C@H](CCCNC(=N)N)NC(=O)[C@H](CCCNC(=N)N)NC(C)=O)C(N)=O [Compound 21] (Ac-RRG[X3]I-NH2)

IC50 (pp60^c-src; Table IV): 1600 µM
Ki (pp60^c-src; Table IV): 963 µM
% Inhibition of 2 mM RR-src at Inhibitor Concentration (1 mM) (pp60^c-src; Table IV): 31%
Compound: O=S(=O)(O)Nc1ccc2ccccc2c1 [Compound 28]
mode of inhibition with respect to ATP (pp60^c-src): not ATP-competitive inhibitors; also recorded: NON-ATP COMPETITIVE

% Inhibition of 2 mM RR-src at Inhibitor Concentration (1 mM) (pp60^c-src; Table IV): 0 (1 mM) %
Compound: O=S(=O)(O)c1ccc2ccccc2c1 [Compound 29]

% Inhibition of 2 mM RR-src at Inhibitor Concentration (100 μM) (pp60^c-src; Table IV): 0 (100 μM) %
Compound: NS(=O)(=O)c1ccc2ccccc2c1 [Compound 31]

% Inhibition of 2 mM RR-src at Inhibitor Concentration (100 μM) (pp60^c-src; Table IV): 0 (100 μM) %
Compound: OB(O)c1cccc2ccccc12 [Compound 32]

% Inhibition of 2 mM RR-src at Inhibitor Concentration (100 μM) (pp60^c-src; Table IV): 0 (100 μM) %
Compound: NS(=O)(=O)c1cccc2ccccc12 [Compound 34]

% Inhibition of 2 mM RR-src at Inhibitor Concentration (100 μM) (pp60^c-src; Table IV): 10 (100 μM) %
Compound: OB(O)c1cc2ccccc2o1 [Compound 35]

% Inhibition of 2 mM RR-src at Inhibitor Concentration (100 μM) (pp60^c-src; Table IV): 12 (100 μM) %
Compound: OB(O)c1cc2ccccc2s1 [Compound 36]
